Source: ChEMBL document CHEMBL1201862, “PubChem BioAssay data set” (2004)
One block for each molecule: values may come before it. The source made the active and inactive calls.

Key:
[1] = molecular target: T1, Hexokinase-1 (Homo sapiens, UniProt P19367); assay: HK1 enzyme activation by HKDC1 hits – biochemical, selectivity assay for HKDC1 activator project, dose response (AID 504762); type: functional
T1 sequence (P19367 whole entry): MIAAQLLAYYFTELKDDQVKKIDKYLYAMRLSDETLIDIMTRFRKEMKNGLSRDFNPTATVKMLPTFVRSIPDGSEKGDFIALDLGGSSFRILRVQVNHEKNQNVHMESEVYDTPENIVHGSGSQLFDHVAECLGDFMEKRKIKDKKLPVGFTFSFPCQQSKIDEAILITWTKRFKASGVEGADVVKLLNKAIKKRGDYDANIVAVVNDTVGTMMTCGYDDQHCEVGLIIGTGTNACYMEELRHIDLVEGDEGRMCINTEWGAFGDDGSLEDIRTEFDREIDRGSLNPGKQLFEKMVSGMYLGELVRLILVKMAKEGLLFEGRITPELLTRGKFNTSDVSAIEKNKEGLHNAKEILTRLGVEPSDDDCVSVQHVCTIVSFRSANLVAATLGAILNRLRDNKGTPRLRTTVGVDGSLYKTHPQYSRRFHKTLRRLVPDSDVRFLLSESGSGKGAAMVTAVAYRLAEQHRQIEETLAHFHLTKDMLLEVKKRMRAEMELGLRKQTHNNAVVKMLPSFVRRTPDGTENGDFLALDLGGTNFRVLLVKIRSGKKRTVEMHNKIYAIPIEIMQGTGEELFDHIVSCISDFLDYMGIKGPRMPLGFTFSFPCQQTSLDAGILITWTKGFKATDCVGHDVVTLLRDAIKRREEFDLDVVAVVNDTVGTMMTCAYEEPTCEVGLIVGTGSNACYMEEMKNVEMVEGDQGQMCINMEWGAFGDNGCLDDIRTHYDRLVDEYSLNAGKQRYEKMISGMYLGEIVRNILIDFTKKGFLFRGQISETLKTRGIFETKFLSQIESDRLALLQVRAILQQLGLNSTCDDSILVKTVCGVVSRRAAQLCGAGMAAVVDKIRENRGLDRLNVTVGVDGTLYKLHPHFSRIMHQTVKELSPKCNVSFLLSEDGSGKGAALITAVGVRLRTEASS

[2] = molecular target: T2, Hexokinase HKDC1 (Homo sapiens, UniProt Q2TB90); assay: activation of HKDC1 glucose phosphorylation – biochemical, W721R variant, dose response (AID 504730); type: functional
T2 sequence (Q2TB90 whole entry): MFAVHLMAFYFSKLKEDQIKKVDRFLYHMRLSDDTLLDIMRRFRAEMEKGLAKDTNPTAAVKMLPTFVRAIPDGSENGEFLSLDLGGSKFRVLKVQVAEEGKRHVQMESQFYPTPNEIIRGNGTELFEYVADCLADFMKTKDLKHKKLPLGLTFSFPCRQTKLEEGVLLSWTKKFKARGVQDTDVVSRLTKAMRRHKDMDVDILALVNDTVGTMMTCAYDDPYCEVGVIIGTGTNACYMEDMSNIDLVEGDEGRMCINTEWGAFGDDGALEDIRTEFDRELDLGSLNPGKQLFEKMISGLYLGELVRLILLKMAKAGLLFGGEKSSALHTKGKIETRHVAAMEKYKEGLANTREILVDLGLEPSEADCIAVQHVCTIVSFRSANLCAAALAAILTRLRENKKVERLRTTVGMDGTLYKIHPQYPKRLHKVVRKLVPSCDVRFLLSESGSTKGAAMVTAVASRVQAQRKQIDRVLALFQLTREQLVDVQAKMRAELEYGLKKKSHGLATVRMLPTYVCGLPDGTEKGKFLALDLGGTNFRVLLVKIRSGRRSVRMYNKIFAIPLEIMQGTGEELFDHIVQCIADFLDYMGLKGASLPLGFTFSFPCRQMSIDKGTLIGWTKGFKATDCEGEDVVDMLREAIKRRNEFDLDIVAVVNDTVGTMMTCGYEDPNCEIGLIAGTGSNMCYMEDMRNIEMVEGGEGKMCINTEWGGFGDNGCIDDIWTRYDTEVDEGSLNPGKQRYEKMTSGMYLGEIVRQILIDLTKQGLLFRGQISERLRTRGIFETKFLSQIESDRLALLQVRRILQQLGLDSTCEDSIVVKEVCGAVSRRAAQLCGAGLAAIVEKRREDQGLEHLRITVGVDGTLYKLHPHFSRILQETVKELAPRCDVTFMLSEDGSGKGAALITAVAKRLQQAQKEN

[3] = molecular target: T3, Caspase-3 (Homo sapiens, UniProt P42574); assay: SAR Analysis of small molecule inhibitors of Sentrin-specific proteases (SENPs) using a Caspase-3 Selectivity assay. [Related pubchem assays (depositor defined):AID2540, AID2599, AID434973, AID489001]; type: functional
T3 sequence (P42574 whole entry): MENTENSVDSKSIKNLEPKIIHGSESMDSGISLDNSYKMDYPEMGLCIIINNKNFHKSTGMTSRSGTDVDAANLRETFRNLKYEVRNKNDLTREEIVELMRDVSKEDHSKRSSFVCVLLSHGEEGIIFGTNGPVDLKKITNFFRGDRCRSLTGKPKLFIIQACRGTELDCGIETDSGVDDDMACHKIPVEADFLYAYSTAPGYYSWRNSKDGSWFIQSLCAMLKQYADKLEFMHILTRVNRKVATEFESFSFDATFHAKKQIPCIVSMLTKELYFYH

[4] = molecular target: T4, Sentrin-specific protease 6 (Homo sapiens, UniProt Q9GZR1); assay: SAR Analysis of small molecule inhibitors of Sentrin-specific protease 6 (SENP6) using a Luminescent assay. [Related pubchem assays (depositor defined):AID2582, AID2599]; type: functional
T4 sequence (Q9GZR1 whole entry): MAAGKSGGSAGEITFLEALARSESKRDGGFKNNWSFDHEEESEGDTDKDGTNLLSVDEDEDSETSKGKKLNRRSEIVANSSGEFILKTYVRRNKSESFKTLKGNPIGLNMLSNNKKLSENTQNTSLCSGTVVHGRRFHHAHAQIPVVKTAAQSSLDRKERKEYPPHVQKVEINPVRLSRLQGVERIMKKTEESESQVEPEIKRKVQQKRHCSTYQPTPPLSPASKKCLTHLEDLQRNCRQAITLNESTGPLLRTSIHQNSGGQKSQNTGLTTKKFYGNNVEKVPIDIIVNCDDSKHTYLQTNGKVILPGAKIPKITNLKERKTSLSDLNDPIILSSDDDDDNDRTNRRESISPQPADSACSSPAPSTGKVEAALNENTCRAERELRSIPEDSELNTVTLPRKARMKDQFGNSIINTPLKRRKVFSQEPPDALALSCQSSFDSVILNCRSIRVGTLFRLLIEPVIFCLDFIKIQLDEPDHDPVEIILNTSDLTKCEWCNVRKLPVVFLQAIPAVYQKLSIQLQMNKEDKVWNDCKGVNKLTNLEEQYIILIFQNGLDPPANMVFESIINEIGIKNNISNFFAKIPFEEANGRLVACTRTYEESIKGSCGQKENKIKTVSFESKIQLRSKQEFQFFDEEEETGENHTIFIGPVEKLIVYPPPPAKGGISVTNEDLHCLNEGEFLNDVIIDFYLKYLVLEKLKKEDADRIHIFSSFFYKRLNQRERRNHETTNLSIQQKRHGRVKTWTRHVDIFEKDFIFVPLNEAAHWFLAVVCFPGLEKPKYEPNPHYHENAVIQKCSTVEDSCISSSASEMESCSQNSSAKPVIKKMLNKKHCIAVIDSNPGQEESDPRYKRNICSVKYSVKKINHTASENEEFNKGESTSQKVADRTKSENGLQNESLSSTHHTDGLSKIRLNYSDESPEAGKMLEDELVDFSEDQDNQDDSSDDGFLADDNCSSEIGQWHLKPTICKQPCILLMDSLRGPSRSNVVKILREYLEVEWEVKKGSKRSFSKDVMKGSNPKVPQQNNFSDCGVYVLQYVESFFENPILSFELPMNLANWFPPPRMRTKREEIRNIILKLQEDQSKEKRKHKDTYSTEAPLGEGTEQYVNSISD

[5] = molecular target: T5, Sentrin-specific protease 8 (Homo sapiens, UniProt Q96LD8); assay: inhibition of human SENP8 cleavage activity – biochemical, luminescence, SAR follow-up (AID 504501); type: functional
T5 sequence (Q96LD8 whole entry): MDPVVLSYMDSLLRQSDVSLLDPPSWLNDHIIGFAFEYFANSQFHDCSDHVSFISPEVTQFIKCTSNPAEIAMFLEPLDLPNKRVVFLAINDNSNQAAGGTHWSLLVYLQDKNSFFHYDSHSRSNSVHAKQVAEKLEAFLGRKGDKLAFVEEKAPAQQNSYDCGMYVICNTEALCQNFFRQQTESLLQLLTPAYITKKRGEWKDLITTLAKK

[6] = tested on: Escherichia coli; assay: microbe, parasite or virus in culture
[7] = molecular target: T6, Low molecular weight phosphotyrosine protein phosphatase (Homo sapiens, UniProt P24666); type: functional; conditions: read-out: IC50_Mean;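 note: Dose-response confirmation assay measuring inhibition of LMPTP enzyme activity by fluorescence intensity read-out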
T6 sequence (P24666 whole entry): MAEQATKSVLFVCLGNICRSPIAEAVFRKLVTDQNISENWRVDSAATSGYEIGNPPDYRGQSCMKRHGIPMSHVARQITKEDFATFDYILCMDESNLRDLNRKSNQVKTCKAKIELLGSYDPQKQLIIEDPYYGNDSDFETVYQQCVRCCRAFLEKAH

[8] = molecular target: T7, Small ubiquitin-related modifier 1 (Homo sapiens, UniProt P63165); assay: SUMO1 protein interaction blockers, potency – biochemical, fluorescence polarization, uHTS hits, dose response (AID 624382); type: functional; conditions: read-out: IC50_Mean
[9] = molecular target: T7, Small ubiquitin-related modifier 1; assay: SUMO1 protein-protein binding blockers, potency – biochemical, FRET, dose response (AID 624383); type: functional; conditions: read-out: IC50_Mean
[10] = molecular target: T5, Sentrin-specific protease 8; type: functional
[11] = molecular target: T5, Sentrin-specific protease 8; type: functional; remark: listed apart in the source
[12] = molecular target: Intestinal-type alkaline phosphatase (Mus musculus, UniProt P24822); assay: PubChem AID 488785; type: functional
[13] = molecular target: T8, Alkaline phosphatase, tissue-nonspecific isozyme (Homo sapiens, UniProt P05186); assay: TNAP enzyme inhibition by screening hits, dose response, selectivity assay for mouse IAP inhibitor project, biochemical, human TNAP, uHTS hits (AID 488906); type: functional
T8 sequence (P05186 whole entry): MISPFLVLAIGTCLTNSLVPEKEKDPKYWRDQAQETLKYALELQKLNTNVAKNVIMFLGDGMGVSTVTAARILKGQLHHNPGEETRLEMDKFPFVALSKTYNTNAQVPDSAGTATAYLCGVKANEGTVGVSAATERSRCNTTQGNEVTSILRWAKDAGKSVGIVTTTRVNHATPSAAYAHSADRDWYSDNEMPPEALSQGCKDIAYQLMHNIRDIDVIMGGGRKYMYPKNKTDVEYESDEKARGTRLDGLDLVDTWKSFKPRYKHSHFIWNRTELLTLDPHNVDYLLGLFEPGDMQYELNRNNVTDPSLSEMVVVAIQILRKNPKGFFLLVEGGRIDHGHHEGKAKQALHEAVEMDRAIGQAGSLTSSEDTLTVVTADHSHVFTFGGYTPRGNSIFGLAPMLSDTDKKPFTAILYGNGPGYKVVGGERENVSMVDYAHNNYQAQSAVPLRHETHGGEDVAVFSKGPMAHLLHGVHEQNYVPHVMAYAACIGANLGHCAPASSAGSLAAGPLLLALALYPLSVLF

[14] = molecular target: Intestinal-type alkaline phosphatase (Homo sapiens, UniProt P09923); assay: inhibition of human intestinal alkaline phosphatase – biochemical, dose response (AID 488876); type: functional
Chain of Intestinal-type alkaline phosphatase (Homo sapiens, UniProt P09923) (P09923 whole entry): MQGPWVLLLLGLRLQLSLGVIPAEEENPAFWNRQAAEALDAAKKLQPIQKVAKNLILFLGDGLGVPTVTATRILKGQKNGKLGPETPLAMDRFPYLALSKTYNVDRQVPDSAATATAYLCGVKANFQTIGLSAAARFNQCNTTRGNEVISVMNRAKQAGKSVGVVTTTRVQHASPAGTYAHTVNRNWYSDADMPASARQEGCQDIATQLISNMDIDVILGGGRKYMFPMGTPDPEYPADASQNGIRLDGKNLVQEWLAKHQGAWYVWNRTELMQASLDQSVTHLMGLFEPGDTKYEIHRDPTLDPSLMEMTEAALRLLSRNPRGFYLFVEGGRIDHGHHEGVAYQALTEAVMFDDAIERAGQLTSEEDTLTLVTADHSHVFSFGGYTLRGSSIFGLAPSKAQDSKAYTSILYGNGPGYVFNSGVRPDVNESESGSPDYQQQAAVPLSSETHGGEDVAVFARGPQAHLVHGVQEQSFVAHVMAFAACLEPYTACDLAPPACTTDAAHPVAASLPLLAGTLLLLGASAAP

T7 sequence (P63165 whole entry): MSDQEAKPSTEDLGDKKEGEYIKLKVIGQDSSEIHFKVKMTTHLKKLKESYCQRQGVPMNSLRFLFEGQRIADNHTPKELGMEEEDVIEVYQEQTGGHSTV
Chain of Intestinal-type alkaline phosphatase (Mus musculus, UniProt P24822) (P24822 whole entry): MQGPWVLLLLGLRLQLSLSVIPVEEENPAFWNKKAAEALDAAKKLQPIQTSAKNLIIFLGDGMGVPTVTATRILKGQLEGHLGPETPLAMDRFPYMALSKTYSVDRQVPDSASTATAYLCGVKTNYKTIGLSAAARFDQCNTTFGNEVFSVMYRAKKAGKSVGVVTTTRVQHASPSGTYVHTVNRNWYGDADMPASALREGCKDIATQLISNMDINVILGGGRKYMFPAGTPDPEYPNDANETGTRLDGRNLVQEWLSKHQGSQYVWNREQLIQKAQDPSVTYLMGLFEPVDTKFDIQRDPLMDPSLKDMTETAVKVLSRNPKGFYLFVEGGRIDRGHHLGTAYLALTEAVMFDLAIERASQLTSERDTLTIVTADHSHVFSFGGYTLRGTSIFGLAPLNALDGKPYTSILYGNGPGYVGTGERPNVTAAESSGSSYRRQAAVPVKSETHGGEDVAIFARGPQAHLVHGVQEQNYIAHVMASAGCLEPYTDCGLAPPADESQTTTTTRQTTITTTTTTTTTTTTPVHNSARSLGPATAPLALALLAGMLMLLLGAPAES

SMILES: C[N+](C)(CCCCCC[N+](C)(C)CCCN1C(=O)c2cccc3cccc(c23)C1=O)CCCN1C(=O)c2cccc3cccc(c23)C1=O
EC50 [1]: 17.9 µM (active)
EC50 [2]: 20.4 µM (inactive)

IC50 [3]: 3.7 µM (active)
IC50 [4]: > 99 µM (inactive)
SMILES: COC(=O)c1ccc(NC(=O)c2ccc3c(c2)OCO3)cc1
IC50 [5]: > 99 µM (inactive)

SMILES: CCc1cc(Cl)c(OC)c(C(=O)NC[C@@H]2CCCN2CC)c1O
AC50 [6]: 19.4 µM (active)

IC50 [7]: 6.49 µM (active)
SMILES: Cc1cc(N2CCN(C(C(=O)NC3CCCC3)c3ccc(-c4ccccc4)cc3)CC2)c2ccccc2n1 (configuration not stated)

EC50 [1]: 17.8 µM (active)
EC50 [2]: 10 µM (active)
SMILES: Cc1ccc(C2=NN=C(Nc3ccc(F)cc3)SC2)cc1

SMILES: COc1c(F)c(F)cc2c(=O)c(C(=O)O)cn(C3CC3)c12
AC50 [6]: 3.88 µM (active)

SMILES: O=C(Nc1ccc2c(c1)C(=O)NC2=O)c1ccc2ncsc2c1
IC50 [8]: > 66.6 µM (inactive)
IC50 [9]: 8.45 µM (active)

SMILES: CC(=O)c1ccc(-n2nnnc2SCC(=O)N2CCc3ccccc3C2)cc1
IC50 [10]: 8.03 µM (active)
IC50 [11]: 10.2 µM (active)

EC50 [1]: 39.4 µM (inactive)
EC50 [2]: 23.9 µM (inactive)
SMILES: COC(=O)c1c(NC(C)=O)sc(Cc2ccccc2)c1C

SMILES: COc1ccc(/C=C(/NC(=O)c2cccc([N+](=O)[O-])c2)C(=O)O)cc1OC
AC50 [6]: 18.5 µM (active)

SMILES: O=C(NC1CCCCC1)Oc1cc2oc(=O)sc2cc1Cl
IC50 [12]: 3.78 µM (active)
IC50 [13]: 11.8 µM (active)
IC50 [14]: 3.54 µM (active)

SMILES: CCOC(=O)c1ccc(N2C(=O)Cc3ccccc3C2=O)cc1
IC50 [10]: 12 µM (active)
IC50 [11]: > 100 µM (inactive)
